ChEMBL document CHEMBL5608242 (J Med Chem, 2024)

Key:
[1] = biological target: T1, Protein deacetylase HDAC6 (Homo sapiens, UniProt Q9UBN7); test: biochemical
T1 sequence (Q9UBN7 whole entry): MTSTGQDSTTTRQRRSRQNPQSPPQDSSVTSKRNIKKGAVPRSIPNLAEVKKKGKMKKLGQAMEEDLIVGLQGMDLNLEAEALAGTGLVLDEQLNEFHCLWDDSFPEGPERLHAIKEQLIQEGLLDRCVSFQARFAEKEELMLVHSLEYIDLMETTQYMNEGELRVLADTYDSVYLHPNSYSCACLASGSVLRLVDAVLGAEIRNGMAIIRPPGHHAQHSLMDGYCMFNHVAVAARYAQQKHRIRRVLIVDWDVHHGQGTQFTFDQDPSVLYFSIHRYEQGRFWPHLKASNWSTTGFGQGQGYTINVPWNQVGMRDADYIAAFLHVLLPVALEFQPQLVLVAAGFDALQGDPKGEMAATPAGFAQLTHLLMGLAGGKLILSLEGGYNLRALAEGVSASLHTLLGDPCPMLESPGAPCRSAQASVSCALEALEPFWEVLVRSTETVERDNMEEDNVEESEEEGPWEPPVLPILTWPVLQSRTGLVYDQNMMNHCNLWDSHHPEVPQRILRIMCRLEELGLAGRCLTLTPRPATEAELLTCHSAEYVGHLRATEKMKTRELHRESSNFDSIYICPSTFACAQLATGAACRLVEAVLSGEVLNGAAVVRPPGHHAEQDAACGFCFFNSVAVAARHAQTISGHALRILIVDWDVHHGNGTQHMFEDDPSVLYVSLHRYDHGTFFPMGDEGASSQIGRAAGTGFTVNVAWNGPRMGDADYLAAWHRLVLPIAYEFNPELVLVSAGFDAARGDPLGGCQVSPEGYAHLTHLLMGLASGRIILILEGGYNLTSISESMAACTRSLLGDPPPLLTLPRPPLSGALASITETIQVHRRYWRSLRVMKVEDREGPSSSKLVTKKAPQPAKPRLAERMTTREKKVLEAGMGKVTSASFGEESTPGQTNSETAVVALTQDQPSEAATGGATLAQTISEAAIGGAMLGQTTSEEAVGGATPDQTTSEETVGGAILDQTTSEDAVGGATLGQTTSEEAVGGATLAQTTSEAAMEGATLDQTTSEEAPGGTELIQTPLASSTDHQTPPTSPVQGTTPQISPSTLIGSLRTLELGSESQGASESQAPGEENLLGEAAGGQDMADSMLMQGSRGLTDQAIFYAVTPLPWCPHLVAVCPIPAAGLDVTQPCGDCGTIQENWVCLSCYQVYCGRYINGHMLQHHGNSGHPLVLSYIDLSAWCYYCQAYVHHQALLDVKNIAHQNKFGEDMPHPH

[2] = biological target: T2, Histone deacetylase 1 (Homo sapiens, UniProt Q13547); test: biochemical
[3] = biological target: Histone deacetylase 3/Nuclear receptor corepressor 2 (HDAC3/NCoR2) (Homo sapiens, UniProt O15379); test: biochemical
[4] = biological target: T3, Amine oxidase [flavin-containing] B (Homo sapiens, UniProt P27338); conditions: read-out: INH
T3 sequence (P27338 whole entry): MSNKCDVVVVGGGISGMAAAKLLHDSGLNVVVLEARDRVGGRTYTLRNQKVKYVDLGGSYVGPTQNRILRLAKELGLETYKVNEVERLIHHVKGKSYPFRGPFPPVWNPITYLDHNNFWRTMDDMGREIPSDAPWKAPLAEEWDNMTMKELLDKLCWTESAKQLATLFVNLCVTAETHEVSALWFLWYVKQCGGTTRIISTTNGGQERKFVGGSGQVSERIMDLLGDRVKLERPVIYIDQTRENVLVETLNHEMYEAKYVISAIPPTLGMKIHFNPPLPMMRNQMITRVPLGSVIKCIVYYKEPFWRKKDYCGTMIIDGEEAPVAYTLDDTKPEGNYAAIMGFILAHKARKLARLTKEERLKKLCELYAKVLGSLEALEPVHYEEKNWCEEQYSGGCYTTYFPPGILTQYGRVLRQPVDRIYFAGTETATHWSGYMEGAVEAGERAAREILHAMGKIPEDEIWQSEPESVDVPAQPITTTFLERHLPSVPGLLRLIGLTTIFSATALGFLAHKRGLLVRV
Description: Inhibition of human recombinant MAO-B using para-tyramine as substrate at 1 uM by Amplex Red fluorimetric assay relative to control

[5] = biological target: Histone deacetylase 2 (Homo sapiens, UniProt Q92769); test: biochemical
[6] = biological target: T2, Histone deacetylase 1; test: biochemical; remark: listed apart in the source
[7] = biological target: Cholinesterase (Equus caballus, UniProt P81908)
Chain of Cholinesterase (P81908 whole entry): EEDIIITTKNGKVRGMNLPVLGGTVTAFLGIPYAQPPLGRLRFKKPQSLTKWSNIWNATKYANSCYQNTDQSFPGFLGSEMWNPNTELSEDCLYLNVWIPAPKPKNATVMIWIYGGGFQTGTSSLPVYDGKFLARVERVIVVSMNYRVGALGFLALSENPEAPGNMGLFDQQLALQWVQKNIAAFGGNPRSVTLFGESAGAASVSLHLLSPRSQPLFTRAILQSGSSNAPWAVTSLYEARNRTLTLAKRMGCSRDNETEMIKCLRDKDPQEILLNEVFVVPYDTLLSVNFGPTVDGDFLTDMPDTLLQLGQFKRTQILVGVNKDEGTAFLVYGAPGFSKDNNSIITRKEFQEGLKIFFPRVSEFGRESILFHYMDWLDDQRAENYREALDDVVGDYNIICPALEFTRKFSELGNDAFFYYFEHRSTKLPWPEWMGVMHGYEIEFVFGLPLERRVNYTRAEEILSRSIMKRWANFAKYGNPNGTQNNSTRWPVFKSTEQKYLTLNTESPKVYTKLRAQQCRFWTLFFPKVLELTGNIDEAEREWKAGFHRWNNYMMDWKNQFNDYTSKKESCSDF

Chain of Histone deacetylase 3/Nuclear receptor corepressor 2 (HDAC3/NCoR2) (O15379 whole entry): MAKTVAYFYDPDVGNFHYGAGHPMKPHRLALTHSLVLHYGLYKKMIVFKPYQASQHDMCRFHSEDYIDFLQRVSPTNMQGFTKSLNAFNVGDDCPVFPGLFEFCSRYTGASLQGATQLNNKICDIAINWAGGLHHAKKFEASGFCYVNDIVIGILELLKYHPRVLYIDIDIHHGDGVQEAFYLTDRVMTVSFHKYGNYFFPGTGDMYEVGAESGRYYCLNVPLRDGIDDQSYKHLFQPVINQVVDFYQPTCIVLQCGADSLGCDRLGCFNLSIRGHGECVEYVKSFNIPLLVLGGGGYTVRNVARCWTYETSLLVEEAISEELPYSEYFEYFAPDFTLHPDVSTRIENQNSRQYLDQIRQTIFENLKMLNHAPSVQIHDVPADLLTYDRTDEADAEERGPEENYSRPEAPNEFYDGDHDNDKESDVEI
Chain of Histone deacetylase 3/Nuclear receptor corepressor 2 (HDAC3/NCoR2) (Q9Y618 whole entry, further chain): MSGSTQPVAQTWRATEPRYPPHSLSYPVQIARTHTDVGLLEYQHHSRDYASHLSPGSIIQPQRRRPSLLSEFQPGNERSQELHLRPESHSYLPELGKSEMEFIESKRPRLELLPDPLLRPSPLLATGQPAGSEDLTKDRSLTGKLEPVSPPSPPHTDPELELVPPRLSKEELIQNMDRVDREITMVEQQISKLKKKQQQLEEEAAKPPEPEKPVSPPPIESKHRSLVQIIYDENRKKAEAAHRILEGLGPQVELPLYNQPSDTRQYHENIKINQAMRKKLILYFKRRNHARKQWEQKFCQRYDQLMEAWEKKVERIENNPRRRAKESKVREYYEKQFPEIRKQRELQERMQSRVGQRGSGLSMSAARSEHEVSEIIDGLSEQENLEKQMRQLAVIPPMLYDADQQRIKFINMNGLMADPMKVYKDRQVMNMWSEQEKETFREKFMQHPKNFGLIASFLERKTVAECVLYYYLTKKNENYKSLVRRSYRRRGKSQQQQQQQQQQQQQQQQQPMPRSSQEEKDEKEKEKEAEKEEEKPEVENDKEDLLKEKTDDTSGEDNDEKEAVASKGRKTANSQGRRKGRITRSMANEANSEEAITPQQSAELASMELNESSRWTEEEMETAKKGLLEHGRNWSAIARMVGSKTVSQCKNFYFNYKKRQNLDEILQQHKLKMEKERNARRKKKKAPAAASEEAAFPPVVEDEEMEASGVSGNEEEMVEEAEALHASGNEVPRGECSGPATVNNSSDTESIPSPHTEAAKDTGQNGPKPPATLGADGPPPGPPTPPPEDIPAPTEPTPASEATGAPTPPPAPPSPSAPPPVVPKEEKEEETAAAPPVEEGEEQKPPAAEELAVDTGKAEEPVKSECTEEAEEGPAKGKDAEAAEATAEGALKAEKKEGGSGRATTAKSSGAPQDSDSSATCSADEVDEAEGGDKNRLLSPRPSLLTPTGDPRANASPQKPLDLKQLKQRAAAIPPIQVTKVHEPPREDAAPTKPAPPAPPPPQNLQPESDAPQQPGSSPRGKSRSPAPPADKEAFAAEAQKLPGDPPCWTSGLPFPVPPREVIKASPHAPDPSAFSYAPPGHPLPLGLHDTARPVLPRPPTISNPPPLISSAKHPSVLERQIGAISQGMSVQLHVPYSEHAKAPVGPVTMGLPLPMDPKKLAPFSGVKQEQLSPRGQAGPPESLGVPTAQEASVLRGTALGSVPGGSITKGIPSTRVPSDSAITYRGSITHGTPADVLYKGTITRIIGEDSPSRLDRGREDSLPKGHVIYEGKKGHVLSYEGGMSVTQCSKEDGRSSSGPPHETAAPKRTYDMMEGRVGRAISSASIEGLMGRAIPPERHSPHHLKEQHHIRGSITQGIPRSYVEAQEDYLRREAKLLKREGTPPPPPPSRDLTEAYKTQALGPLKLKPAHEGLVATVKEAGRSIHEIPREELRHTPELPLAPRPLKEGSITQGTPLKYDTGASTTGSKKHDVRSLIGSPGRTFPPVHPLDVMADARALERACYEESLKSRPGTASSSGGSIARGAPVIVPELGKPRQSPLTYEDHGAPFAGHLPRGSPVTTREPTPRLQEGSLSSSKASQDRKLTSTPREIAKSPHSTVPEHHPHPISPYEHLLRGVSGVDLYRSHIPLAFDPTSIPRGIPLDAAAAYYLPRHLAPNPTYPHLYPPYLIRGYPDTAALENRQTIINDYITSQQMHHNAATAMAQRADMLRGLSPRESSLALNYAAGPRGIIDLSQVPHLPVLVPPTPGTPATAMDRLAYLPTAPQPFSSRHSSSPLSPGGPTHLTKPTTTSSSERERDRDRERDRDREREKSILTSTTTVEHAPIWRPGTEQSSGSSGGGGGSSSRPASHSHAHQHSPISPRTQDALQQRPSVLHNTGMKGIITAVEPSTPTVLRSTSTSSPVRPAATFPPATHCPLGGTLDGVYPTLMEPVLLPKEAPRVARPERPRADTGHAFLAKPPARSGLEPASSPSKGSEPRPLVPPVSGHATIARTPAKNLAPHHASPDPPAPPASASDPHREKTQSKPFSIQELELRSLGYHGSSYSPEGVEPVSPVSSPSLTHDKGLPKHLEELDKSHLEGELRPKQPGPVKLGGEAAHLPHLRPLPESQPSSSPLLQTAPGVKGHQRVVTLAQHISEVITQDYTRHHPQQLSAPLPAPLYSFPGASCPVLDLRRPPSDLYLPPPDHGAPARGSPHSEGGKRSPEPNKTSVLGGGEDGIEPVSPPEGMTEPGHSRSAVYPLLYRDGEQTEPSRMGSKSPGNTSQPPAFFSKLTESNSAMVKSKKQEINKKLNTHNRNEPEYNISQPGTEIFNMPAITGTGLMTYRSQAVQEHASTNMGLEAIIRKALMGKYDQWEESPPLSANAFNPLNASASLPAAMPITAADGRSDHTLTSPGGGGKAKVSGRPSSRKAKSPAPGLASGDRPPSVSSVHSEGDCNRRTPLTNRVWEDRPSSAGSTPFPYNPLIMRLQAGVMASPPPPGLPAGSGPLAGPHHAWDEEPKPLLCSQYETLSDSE
T2 sequence (Q13547 whole entry): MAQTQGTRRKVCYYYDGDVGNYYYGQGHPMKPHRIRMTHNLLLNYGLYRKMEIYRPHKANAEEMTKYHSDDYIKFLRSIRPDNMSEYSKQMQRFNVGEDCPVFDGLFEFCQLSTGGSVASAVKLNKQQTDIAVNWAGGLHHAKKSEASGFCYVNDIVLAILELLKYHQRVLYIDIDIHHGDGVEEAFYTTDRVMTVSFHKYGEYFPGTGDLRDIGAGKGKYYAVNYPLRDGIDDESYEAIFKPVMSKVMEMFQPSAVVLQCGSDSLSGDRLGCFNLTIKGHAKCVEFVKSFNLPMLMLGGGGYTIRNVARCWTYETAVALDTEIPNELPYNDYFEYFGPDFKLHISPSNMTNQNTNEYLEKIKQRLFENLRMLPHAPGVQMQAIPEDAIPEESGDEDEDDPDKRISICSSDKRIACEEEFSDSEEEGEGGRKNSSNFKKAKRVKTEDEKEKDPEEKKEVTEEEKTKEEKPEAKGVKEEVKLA
Chain of Histone deacetylase 2 (Q92769 whole entry): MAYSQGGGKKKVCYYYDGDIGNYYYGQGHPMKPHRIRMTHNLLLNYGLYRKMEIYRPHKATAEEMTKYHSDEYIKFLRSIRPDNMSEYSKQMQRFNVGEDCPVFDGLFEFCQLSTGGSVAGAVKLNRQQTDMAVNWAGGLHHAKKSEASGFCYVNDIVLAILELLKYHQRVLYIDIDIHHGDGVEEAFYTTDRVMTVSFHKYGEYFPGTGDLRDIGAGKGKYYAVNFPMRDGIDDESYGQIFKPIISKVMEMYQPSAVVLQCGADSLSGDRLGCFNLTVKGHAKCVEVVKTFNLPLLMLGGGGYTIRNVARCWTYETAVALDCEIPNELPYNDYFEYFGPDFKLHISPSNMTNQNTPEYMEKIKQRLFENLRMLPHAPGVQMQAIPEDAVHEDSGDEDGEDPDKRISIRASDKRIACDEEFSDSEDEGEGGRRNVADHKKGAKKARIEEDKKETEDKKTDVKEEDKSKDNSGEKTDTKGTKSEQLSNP

| IC50 [1] [µM] | IC50 [6] [µM] | Compound | other results |
| --- | --- | --- | --- |
| > 10 |  | C#CCN(C)Cc1cc2cc(OCCCN3CCCCC3)ccc2n1C | IC50 [2]: > 10 µM; IC50 [3]: > 10 µM |
| 0.168 |  | COc1ccc2c(ccn2S(=O)(=O)c2ccc(C(=O)NO)cc2)c1 |  |
|  |  | C#CCN1CCN(CCCOc2ccc3c(ccn3S(=O)(=O)c3ccc(C(=O)NO)cc3)c2)CC1 | inhibition at 1 µM [4]: 28%; IC50 [5]: 5.41 µM; IC50 [3]: 2.71 µM |
|  | 0.735 | O=C(NO)c1ccc(S(=O)(=O)n2ccc3cc(OCCCN4CCCCC4)ccc32)cc1 | inhibition at 1 µM [4]: < 10%; IC50 [5]: 1.92 µM; IC50 [3]: 0.937 µM |
| > 3.33 |  | C#CCN1CCN(CCCOc2ccc3c(ccn3S(=O)(=O)c3ccc(C(=O)Nc4ccccc4N)cc3)c2)CC1 |  |
|  | 3.99 | O=C(NO)c1ccc(S(=O)(=O)n2ccc3cc(OCc4ccccc4)ccc32)cc1 |  |
| > 10 |  | CCCNNC(=O)c1ccc(S(=O)(=O)n2ccc3cc(OCCCN4CCCCC4)ccc32)cc1 | inhibition at 1 µM [4]: < 10% |
| > 10 | > 10 | NNC(=O)c1ccc(S(=O)(=O)n2ccc3cc(OCCCN4CCCCC4)ccc32)cc1 |  |
| > 10 |  | Nc1ccccc1NC(=O)c1ccc(S(=O)(=O)n2ccc3cc(OCc4ccccc4)ccc32)cc1 |  |
| > 10 |  | CCCN(CCC)NC(=O)c1ccc(S(=O)(=O)n2ccc3cc(OC)ccc32)cc1 | IC50 [2]: > 10 µM |
| > 10 | > 10 | C#CCN1CCN(CCCOc2ccc3c(ccn3S(=O)(=O)c3ccc(C(=O)NN)cc3)c2)CC1 |  |
| > 10 | > 10 | COc1ccc2c(ccn2S(=O)(=O)c2ccc(C(=O)NN)cc2)c1 |  |
| > 10 | > 10 | NNC(=O)c1ccc(S(=O)(=O)n2ccc3cc(OCc4ccccc4)ccc32)cc1 |  |
| > 10 |  | Nc1ccccc1NC(=O)c1ccc(S(=O)(=O)n2ccc3cc(OCCCN4CCCCC4)ccc32)cc1 |  |
| > 10 |  | CCCNNC(=O)c1ccc(S(=O)(=O)n2ccc3cc(OC)ccc32)cc1 | inhibition at 1 µM [4]: < 10% |

| Compound | IC50 [1] [µM] | IC50 [6] [µM] | other results |
| --- | --- | --- | --- |
| C#CCN1CCN(CCCOc2ccc3c(ccn3S(=O)(=O)c3ccc(C(=O)NNCCC)cc3)c2)CC1 | > 10 |  | IC50 [7]: 8.81 µM |
